These results are taken from patent US20230135894A1, “MK2 DEGRADERS AND USES THEREOF” (Kymera Therapeutics, Inc., priority 2021, published 2023).

The target in test [1] is T1, MK2 (Homo sapiens, UniProt P49137). Briefly: MK2 degradation in human SW1353 cells (MSD, 24 h). The class given is cell-based. Conditions: for Dmax: read-out: MK2 MSD SW 1353 24 h Dmax %; for DC50: read-out: MK2 MSD SW1353 degradation 24 h GMean External Abs DC50. The arrangement: endogenous in cells; host or cells: SW-1353 (ATCC HTB-94). Summed up:
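SW1353 chondrosarcoma cells were treated with up to 10-point serial dilutions (0.1% DMSO) for 24 h at 37 °C, then lysed in RIPA buffer. MK2 levels were quantified by MSD sandwich immunoassay; DC50 came from a 4-parameter logistic fit normalised to DMSO-treated cells (high) and lysis buffer (low).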

In test [2] the target is T1, MK2. Briefly: MK2 degradation in human THP-1 monocytic cells (MSD, 24 h). Type of test: cell-based. Also on record: endogenous in cells. Conditions: for Dmax: THP-1, THP-1 cells; for DC50: THP-1 cells, read-out: MK2 MSD THP-1 degradation 24 h GMean External Abs DC50. Put shortly: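 THP-1 cells (200,000/well) treated 24 h at 37 °C with compound dilution series (up to 10 points, 0.1% DMSO). MK2 in RIPA lysates quantified by MSD sandwich immunoassay. DC50 from 4-parameter logistic fit, DMSO-treated cells as high and lysis buffer as low signal.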

T1 sequence (P49137 whole entry): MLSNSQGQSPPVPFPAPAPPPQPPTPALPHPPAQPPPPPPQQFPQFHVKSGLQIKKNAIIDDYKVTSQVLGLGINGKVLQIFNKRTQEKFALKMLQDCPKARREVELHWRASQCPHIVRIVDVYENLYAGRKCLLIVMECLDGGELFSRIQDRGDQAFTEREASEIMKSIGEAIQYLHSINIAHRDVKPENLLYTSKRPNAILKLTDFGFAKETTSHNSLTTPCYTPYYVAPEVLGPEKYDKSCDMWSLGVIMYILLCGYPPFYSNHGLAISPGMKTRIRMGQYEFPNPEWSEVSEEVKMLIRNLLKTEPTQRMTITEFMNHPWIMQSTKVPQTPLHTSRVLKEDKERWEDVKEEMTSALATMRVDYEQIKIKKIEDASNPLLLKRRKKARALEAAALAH

On to `C[C@@H]1CNc2c(sc3ccc4nc(-c5ccc(N6CCN(CCCCOc7ccc(N8CCC(=O)NC8=O)cc7)CC6)nc5)ccc4c23)C(=O)N1` [Compound I-437], for which, on MK2 [1], the Dmax was greater than 75% and the DC50 lay within 1 to 10 nM. Moreover, on MK2 [2], the Dmax is greater than 75% and the DC50 fell in the range of 1 to 10 nM.

As for `C[C@@H]1CNc2c(sc3ccc4nc(-c5ccc(N6CCN(CC7CCN(c8ccc(N9CCC(=O)NC9=O)cc8)CC7)CC6)nc5)ccc4c23)C(=O)N1` [Compound I-438], on MK2 [1], the Dmax is greater than 75% and the DC50 was 1 to 10 nM. In addition, at MK2 [2], the Dmax was greater than 75% and the DC50 is 1 to 10 nM.

For the molecule `C[C@@H]1CNc2c(sc3ccc4nc(N5CCC(CN6CC7(C6)CN(c6ccc8c(c6)n(C)c(=O)n8C6CCC(=O)NC6=O)C7)CC5)ccc4c23)C(=O)N1` (some centres unmarked) [Compound I-439], the Dmax on MK2 [1] and on MK2 [2] was greater than 75% in each case. Also, the DC50 at MK2 [1] was less than 1 nM; on MK2 [2] it was 1 to 10 nM.

Turning to `C[C@@H]1CNc2c(sc3ccc4nc(N5CCC(N6CC7(CCN(c8ccc9c(c8)n(C)c(=O)n9C8CCC(=O)NC8=O)CC7)C6)CC5)ccc4c23)C(=O)N1` (some centres unmarked) [Compound I-440], on MK2 [1], the Dmax is greater than 75% and the DC50 was less than 1 nM. At MK2 [2], the Dmax is greater than 75% and the DC50 is less than 1 nM.

Consider `C[C@@H]1CNc2c(sc3ccc4nc(N5CCC6(CC5)CN(C5CCN(c7cccc8c7n(C)c(=O)n8C7CCC(=O)NC7=O)CC5)C6)ccc4c23)C(=O)N1` (some centres unmarked) [Compound I-441], for which, on MK2 [1], the Dmax is greater than 75% and the DC50 was less than 1 nM. Besides, on MK2 [2], the Dmax is greater than 75% and the DC50 fell in the range of 1 to 10 nM.

Take `C[C@@H]1CNc2c(sc3ccc4nc(N5CCCN(CC6CCN(c7cccc8c7n(C)c(=O)n8C7CCC(=O)NC7=O)CC6)CC5)ccc4c23)C(=O)N1` (some centres unmarked) [Compound I-442]: on MK2 [1], the Dmax is less than 50% and the DC50 was greater than 100 nM. Also, on MK2 [2], the Dmax was less than 50% and the DC50 is greater than 100 nM.

Consider `C[C@@H]1CNc2c(sc3ccc4nc(N5CCN(C6CC7(CCN(c8cccc9c8n(C)c(=O)n9C8CCC(=O)NC8=O)CC7)C6)CC5)ccc4c23)C(=O)N1` (some centres unmarked) [Compound I-443], for which, at MK2 [1], the Dmax was greater than 75% and the DC50 is less than 1 nM. Also, at MK2 [2], the Dmax is greater than 75% and the DC50 is less than 1 nM.

`C[C@@H]1CNc2c(sc3ccc4nc(N5CCCN(CCC6CCN(c7ccc8c(c7)n(C)c(=O)n8C7CCC(=O)NC7=O)CC6)CC5)ccc4c23)C(=O)N1` (some centres unmarked) [Compound I-444]: the Dmax on MK2 [1] is greater than 75%; at MK2 [2] it was 50 to 75%. In addition, the DC50 on MK2 [1] and on MK2 [2] was 1 to 10 nM each time.

Turning to `C[C@@H]1CNc2c(sc3ccc4nc(N5CCN(CCC6CCN(c7ccc8c(c7)n(C)c(=O)n8C7CCC(=O)NC7=O)CC6)CC5)ccc4c23)C(=O)N1` (some centres unmarked) [Compound I-445], the Dmax on MK2 [1] and at MK2 [2] was greater than 75% throughout. The DC50 at MK2 [1] and at MK2 [2] was less than 1 nM each time.

For the molecule `C[C@@H]1CNc2c(sc3ccc4nc(N5CCCN(CC6CCN(c7ccc8c(c7)n(C)c(=O)n8C7CCC(=O)NC7=O)CC6)CC5)ccc4c23)C(=O)N1` (some centres unmarked) [Compound I-446], the Dmax on MK2 [1] and at MK2 [2] was less than 50% each time. In addition, the DC50 at MK2 [1] and on MK2 [2] was greater than 100 nM each time.

Consider `CCc1cc(-c2cc(-c3cc4c([nH]3)CCNC4=O)ccn2)cc(CC)c1N1CCN(CC2CCN(c3ccc4c(c3)n(C)c(=O)n4C3CCC(=O)NC3=O)CC2)CC1` (centres unmarked) [Compound I-447], for which, on MK2 [1], the Dmax lay within 50 to 75% and the DC50 is 10 to 100 nM. In addition, on MK2 [2], the Dmax was less than 50% and the DC50 was greater than 100 nM.

Turning to `CCc1cc(-c2cc(-c3cc4c([nH]3)C3(CC3)CNC4=O)ccn2)cc(CC)c1N1CCN(CC2CCN(c3ccc4c(c3)n(C)c(=O)n4C3CCC(=O)NC3=O)CC2)CC1` (centres unmarked) [Compound I-448], at MK2 [1], the Dmax is 50 to 75% and the DC50 is 1 to 10 nM. On MK2 [2], the Dmax is less than 50% and the DC50 is greater than 100 nM.

In the case of `CN1CCc2[nH]c(-c3ccnc(-c4ccc(N5CCN(CC6CCN(c7ccc8c(c7)n(C)c(=O)n8C7CCC(=O)NC7=O)CC6)CC5)cc4)c3)cc2C1=O` (centres unmarked) [Compound I-450], on MK2 [1], the Dmax is less than 50% and the DC50 is greater than 100 nM. At MK2 [2], the Dmax was less than 50% and the DC50 was greater than 100 nM.

Turning to `C[C@@H]1CNc2c(sc3ccc4nc(N5CCN(C6CC7(CCN(c8ccc9c(c8)n(C)c(=O)n9C8CCC(=O)NC8=O)CC7)C6)CC5)ccc4c23)C(=O)N1` (some centres unmarked) [Compound I-451], at MK2 [1], the Dmax was greater than 75% and the DC50 was less than 1 nM. For the same molecule, at MK2 [2], the Dmax is greater than 75% and the DC50 is less than 1 nM.

Regarding `C[C@@H]1CNc2c(sc3ccc4nc(N5C[C@H]6CC[C@@H]5CN6CC5CCN(c6cccc7c6n(C)c(=O)n7C6CCC(=O)NC6=O)CC5)ccc4c23)C(=O)N1` (some centres unmarked) [Compound I-452], on MK2 [1], the Dmax lay in the range of 50 to 75% and the DC50 was in the range of 1 to 10 nM. For the same molecule, on MK2 [2], the Dmax lay within 50 to 75% and the DC50 fell in the range of 10 to 100 nM.

`Cn1c(=O)n(C2CCC(=O)NC2=O)c2ccc(N3CCC(CN4CCN(c5ccc6occc6c5-c5cc(Nc6ccnc(N)n6)cc6cn[nH]c56)CC4)CC3)cc21` (centres unmarked) [Compound I-453]: at MK2 [1], the Dmax is less than 50% and the DC50 is greater than 100 nM. In addition, on MK2 [2], the Dmax is less than 50% and the DC50 is greater than 100 nM.

On to `Cn1c(=O)n(C2CCC(=O)NC2=O)c2ccc(N3CCC(CN4CCN(c5ccc6cc(-c7cc(Nc8ccnc(N)n8)cc8cn[nH]c78)oc6c5)CC4)CC3)cc21` (centres unmarked) [Compound I-454], for which, on MK2 [1], the Dmax is less than 50% and the DC50 was greater than 100 nM. On MK2 [2], the Dmax is less than 50% and the DC50 is greater than 100 nM.

`Cn1c(=O)n(C2CCC(=O)NC2=O)c2ccc(N3CCC(CN4CCN(c5cc(C#N)cc(-n6cc(-c7ccc8c(c7)CCNC8=O)c(N)n6)c5)CC4)CC3)cc21` (centres unmarked) [Compound I-458]: at MK2 [1], the Dmax was less than 50% and the DC50 is greater than 100 nM. For the same molecule, at MK2 [2], the Dmax is less than 50% and the DC50 is greater than 100 nM.

`COc1cc(N2CCN(CC3CCN(c4ccc5c(c4)n(C)c(=O)n5C4CCC(=O)NC4=O)CC3)CC2)cc(-n2cc(-c3ccc4c(c3)CCNC4=O)c(N)n2)c1` (centres unmarked) [Compound I-459]: at MK2 [1], the Dmax was less than 50% and the DC50 was greater than 100 nM. For the same molecule, on MK2 [2], the Dmax was less than 50% and the DC50 is greater than 100 nM.

For the molecule `COc1cccc(-c2cc(N3CCN(CC4CCN(c5ccc6c(c5)n(C)c(=O)n6C5CCC(=O)NC5=O)CC4)CC3)cc(-n3cc(-c4ccc5c(c4)CCNC5=O)c(N)n3)c2)c1` (centres unmarked) [Compound I-460], on MK2 [1], the Dmax was less than 50% and the DC50 is greater than 100 nM. At MK2 [2], the Dmax is less than 50% and the DC50 was greater than 100 nM.

For the molecule `Cn1c(=O)n(C2CCC(=O)NC2=O)c2ccc(N3CCC(CN4CCN(c5cc(-c6ccc7cc[nH]c7c6)cc(-n6cc(-c7ccc8c(c7)CCNC8=O)c(N)n6)c5)CC4)CC3)cc21` (centres unmarked) [Compound I-461], at MK2 [1], the Dmax is greater than 75% and the DC50 fell in the range of 1 to 10 nM. At MK2 [2], the Dmax is 50 to 75% and the DC50 is 10 to 100 nM.

In the case of `Cc1ccc(NC(=O)c2cccc(C(F)(F)F)c2)cc1N1Cc2cnc(Nc3ccc(N4CCN(CCCCCC(=O)N[C@H](C(=O)N5C[C@H](O)C[C@H]5C(=O)N[C@@H](C)c5ccc(-c6scnc6C)cc5)C(C)(C)C)CC4)nc3)nc2N(C)C1=O` [Compound I-462], at MK2 [1], the Dmax was greater than 75% and the DC50 is 10 to 100 nM. In addition, at MK2 [2], the Dmax was greater than 75% and the DC50 was 1 to 10 nM.

With `Cc1ccc(NC(=O)c2cccc(C(F)(F)F)c2)cc1N1Cc2cnc(Nc3ccc(N4CCN(CCCCC(=O)N[C@H](C(=O)N5C[C@H](O)C[C@H]5C(=O)N[C@@H](C)c5ccc(-c6scnc6C)cc5)C(C)(C)C)CC4)nc3)nc2N(C)C1=O` [Compound I-463], on MK2 [1], the Dmax was greater than 75% and the DC50 was 1 to 10 nM. On MK2 [2], the Dmax is greater than 75% and the DC50 was 1 to 10 nM.

What is called Dmax is the largest share of the target that was removed. The DC50 is the midpoint of the concentration-degradation curve.
